In ChEMBL document CHEMBL4507319 (2021):

Columns and labels:
Conditions in all cases: Compound concentration 1.0 uM
[1] = target: T1, Serine/threonine-protein kinase Nek1 (Homo sapiens) (UniProt Q96PY6); assay: NEK1(h) Eurofins kinase panel
T1 sequence (whole entry): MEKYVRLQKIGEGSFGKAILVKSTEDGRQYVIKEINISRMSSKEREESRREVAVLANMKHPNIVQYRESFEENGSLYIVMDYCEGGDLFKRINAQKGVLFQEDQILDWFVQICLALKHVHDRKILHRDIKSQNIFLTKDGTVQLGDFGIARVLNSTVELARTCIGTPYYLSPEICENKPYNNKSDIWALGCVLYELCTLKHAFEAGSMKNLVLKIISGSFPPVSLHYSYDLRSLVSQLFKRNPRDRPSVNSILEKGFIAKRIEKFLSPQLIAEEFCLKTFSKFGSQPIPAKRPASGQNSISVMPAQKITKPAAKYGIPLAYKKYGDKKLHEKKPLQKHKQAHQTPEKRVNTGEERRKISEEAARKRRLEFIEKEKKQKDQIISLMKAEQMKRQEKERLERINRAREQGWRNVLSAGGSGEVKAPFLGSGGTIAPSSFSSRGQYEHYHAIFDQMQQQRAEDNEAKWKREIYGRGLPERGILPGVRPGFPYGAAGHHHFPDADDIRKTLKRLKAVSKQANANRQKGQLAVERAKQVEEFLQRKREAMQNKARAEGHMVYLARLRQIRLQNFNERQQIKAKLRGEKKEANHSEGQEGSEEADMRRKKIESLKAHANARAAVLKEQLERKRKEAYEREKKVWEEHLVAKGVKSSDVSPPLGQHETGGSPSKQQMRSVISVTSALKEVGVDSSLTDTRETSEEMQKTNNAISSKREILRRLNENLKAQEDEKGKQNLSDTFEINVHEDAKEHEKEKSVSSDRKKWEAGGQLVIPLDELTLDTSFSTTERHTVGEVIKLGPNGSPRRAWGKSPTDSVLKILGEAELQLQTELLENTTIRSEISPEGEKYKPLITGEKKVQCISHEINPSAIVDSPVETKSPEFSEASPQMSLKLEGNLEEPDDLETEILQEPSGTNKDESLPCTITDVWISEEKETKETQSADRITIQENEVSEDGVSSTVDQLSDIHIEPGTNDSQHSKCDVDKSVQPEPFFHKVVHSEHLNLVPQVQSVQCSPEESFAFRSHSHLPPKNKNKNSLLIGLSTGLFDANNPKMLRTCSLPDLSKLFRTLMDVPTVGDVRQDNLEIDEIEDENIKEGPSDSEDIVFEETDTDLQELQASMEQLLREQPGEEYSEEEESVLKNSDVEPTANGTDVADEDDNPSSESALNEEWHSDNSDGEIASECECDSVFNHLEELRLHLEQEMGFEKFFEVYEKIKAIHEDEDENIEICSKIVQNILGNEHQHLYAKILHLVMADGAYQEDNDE

[2] = target: LIM domain kinase 1 (Homo sapiens) (UniProt P53667); assay: LIMK1(h) Eurofins kinase panel
Sequence of LIM domain kinase 1 (Homo sapiens) (P53667 whole entry, looked up, the tested form may be a part): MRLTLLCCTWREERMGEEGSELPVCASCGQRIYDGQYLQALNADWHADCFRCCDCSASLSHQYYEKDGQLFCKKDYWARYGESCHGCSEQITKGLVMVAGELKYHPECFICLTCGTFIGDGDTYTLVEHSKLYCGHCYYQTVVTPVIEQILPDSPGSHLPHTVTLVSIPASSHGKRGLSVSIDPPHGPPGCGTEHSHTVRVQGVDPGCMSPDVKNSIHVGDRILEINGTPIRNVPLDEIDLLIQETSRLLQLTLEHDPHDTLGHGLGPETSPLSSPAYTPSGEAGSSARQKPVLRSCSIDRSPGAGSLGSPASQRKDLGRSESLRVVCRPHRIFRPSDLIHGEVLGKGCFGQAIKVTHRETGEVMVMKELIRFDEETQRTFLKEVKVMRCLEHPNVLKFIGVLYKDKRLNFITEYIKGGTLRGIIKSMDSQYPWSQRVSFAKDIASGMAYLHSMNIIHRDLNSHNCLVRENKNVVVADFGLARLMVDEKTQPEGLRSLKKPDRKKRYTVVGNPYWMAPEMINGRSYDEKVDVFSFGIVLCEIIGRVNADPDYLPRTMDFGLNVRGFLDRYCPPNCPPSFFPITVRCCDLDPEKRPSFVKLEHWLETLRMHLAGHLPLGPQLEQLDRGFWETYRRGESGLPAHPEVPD

[3] = target: T2, Tyrosine-protein kinase receptor TYRO3 (Homo sapiens) (UniProt Q06418); assay: Rse(h) Eurofins kinase panel
T2 sequence (whole entry): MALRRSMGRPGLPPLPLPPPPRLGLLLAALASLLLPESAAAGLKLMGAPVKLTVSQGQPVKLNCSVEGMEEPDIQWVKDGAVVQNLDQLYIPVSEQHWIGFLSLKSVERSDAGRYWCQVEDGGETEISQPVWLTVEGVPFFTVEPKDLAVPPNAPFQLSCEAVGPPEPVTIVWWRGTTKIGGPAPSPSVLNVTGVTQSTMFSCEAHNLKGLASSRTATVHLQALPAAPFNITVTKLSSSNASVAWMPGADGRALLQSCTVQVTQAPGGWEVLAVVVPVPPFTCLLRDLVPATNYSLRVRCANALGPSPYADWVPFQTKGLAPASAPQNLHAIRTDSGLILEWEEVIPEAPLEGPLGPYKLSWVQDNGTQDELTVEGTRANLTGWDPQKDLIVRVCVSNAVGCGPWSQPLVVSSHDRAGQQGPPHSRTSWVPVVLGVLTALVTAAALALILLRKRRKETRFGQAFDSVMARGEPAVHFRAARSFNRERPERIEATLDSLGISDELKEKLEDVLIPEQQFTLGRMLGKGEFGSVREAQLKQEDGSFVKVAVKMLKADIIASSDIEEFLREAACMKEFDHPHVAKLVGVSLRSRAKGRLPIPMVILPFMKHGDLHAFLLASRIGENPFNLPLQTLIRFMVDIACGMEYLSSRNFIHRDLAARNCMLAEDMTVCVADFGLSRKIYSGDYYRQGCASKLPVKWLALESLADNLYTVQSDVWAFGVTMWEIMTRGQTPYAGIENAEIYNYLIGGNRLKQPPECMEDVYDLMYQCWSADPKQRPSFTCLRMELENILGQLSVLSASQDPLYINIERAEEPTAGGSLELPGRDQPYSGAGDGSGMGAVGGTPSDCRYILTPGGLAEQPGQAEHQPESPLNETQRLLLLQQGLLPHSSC

[4] = target: Rho-associated protein kinase 1 (Homo sapiens) (UniProt Q13464); assay: ROCK-I(h) Eurofins kinase panel
Sequence of Rho-associated protein kinase 1 (Homo sapiens) (Q13464 2-1354 limits assumed): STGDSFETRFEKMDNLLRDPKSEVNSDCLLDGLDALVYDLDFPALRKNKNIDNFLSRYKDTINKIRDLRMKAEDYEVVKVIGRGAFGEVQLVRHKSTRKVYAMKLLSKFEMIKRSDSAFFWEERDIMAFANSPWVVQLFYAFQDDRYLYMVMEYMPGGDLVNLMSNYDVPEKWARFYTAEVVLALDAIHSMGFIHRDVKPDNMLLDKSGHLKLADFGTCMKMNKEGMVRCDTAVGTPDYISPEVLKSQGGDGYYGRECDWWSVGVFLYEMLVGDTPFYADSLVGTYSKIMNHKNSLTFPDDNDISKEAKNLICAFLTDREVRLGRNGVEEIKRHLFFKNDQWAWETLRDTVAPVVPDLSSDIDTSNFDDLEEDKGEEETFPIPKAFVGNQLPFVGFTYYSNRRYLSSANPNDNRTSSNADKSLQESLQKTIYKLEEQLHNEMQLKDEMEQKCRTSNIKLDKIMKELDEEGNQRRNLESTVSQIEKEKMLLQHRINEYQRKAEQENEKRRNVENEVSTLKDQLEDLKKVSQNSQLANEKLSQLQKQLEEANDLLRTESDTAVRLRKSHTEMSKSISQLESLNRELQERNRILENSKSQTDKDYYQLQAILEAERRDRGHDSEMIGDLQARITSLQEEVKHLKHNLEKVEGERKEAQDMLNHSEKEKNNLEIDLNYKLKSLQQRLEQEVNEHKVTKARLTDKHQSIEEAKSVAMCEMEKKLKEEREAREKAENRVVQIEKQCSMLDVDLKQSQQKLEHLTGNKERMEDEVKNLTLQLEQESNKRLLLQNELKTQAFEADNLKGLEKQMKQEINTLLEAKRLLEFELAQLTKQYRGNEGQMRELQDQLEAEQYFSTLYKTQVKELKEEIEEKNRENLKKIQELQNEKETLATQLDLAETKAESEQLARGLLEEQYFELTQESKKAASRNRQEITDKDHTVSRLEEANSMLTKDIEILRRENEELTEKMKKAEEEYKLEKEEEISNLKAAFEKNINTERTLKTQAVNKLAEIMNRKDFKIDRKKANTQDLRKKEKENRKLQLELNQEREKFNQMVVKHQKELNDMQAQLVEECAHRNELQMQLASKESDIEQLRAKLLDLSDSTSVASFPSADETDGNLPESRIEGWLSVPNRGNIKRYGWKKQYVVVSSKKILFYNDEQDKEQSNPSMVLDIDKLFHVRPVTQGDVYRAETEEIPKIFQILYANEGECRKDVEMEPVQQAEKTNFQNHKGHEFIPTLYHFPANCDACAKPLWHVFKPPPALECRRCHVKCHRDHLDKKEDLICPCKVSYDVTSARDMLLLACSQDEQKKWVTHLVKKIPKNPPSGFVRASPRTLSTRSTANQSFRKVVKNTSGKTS

[5] = target: T3, Muscle, skeletal receptor tyrosine-protein kinase (Homo sapiens) (UniProt O15146); assay: MuSK(h) Eurofins kinase panel
T3 sequence (whole entry): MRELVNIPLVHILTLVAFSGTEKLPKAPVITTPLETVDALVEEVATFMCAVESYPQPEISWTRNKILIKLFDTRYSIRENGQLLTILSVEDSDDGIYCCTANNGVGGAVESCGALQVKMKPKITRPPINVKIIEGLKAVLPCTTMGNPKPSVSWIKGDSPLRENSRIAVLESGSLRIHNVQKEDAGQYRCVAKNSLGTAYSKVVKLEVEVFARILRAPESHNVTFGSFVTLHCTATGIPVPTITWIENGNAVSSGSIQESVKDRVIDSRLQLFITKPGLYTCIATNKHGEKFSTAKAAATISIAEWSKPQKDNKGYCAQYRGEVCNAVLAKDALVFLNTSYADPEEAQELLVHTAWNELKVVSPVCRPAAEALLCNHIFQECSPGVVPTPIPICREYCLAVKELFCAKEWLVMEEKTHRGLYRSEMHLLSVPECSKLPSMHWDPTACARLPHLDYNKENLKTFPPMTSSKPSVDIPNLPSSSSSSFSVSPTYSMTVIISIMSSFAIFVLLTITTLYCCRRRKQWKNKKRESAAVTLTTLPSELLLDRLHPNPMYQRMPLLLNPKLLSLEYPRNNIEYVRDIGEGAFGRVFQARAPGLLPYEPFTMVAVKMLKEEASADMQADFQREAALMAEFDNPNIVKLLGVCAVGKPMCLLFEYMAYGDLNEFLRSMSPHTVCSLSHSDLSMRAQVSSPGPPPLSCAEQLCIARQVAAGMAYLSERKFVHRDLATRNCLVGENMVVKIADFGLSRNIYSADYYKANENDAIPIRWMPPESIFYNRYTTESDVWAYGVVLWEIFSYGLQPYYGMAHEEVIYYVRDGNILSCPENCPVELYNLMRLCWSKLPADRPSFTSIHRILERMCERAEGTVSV

Measured: % residual kinase activity

CCc1ccccc1C(=O)Nc1n[nH]c2c(C)c(F)c(C3C(C#N)=C(C)N(C)C(C)=C3C#N)cc12 [BAY-3827]
inactive: [1] 102% | [2] 95% | [3] 105% | [4] 104% | [5] 91%
